Laboratory results reported in patent US11078192B2, “Aromatic acetylene or aromatic ethylene compound, intermediate, preparation method, pharmaceutical composition and use thereof” (GUANGZHOU MAXINOVEL PHARMACEUTICALS CO., LTD., priority 2016, dated 2021).

target: PD-1/PD-L1 (Homo sapiens (Human), UniProt Q9NZQ7); experiment: Homogeneous Time-Resolved Fluorescence (HTRF) binding assay; settings: CisBio kit #64CUS000C-1, read-out: IC50 of compounds binding to PD-1/PD-L1
Procedure: Homogeneous Time-Resolved Fluorescence (HTRF) binding assay was used to determine the binding activity of the compound of the present invention to PD-1/PD-L1.
The purchased kit (CisBio, #64CUS000C-1) contained reagents required for assays such as PD-1, PD-L1, anti-tag1-Eu, Anti-tag2-XL665, Dilute Buffer, and Detection Buffer.
1. The compound was formulated to 10 concentrations with a 3-fold gradient with 100% DMSO.
2. The solution of the compound in DMSO was added to Dilute Buffer, mixed thoroughly, then transferred to a 96-well plate.
3. PD-L1 was diluted with Dilute Buffer, then added to the above 96-well plate.
4. PD-1 was diluted with Dilute Buffer and added to the above 96-well plate, which was then incubated at room temperature for 30 minutes.
5. A portion of anti-tag1-Eu and a portion of anti-tag2-XL665 were added to Detection Buffer, mixed thoroughly and transferred to the above 96-well plate.
6. The mixture in the above 96-well plate was incubated at room temperature for 1 to 24 hours.
7. HTRF values were read with Envision.

Sequence of PD-1/PD-L1 (Q9NZQ7 19-238): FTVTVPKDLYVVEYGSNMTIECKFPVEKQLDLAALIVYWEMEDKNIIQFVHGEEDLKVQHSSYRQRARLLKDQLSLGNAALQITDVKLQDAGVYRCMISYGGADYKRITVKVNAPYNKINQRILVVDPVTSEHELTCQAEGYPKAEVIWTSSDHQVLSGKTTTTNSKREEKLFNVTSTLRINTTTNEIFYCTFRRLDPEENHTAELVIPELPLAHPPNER

Row | Structure (SMILES) | IC50
1 | Cc1cc(/C=C/c2cccc(-c3ccc4c(c3)OCCO4)c2C)cc(OCc2cccc(C#N)c2)c1CN1CCC[C@H]1CO [Compound 1, (S,E)-3-((5-(3-(2,3-Dihydrobenzo[b][1,4]dioxin-6-yl)-2-methylstyryl)-2-((2-(hydroxymethyl)pyrrolidin-1-yl)methyl)-3-methylphenoxy)methyl)benzonitrile] | 1530 nM
2 | Cc1c(/C=C/c2ccc(CNCC(O)CC(=O)O)cn2)cccc1-c1ccc2c(c1)OCCO2 (centres unmarked) [Compound 18, (E)-4-((6-(3-(2,3-Dihydrobenzo[b][1,4]dioxin-6-yl)-2-methylstyryl)pyridin-3-yl)methylamino)-3-hydroxybutanoic Acid] | 190 nM
3 | COc1nc(/C=C/c2cccc(-c3ccccc3)c2C)ccc1CNC(CO)CO [Compound 40] | 90 nM
4 | COc1cc(/C=C/c2cccc(-c3ccccc3)c2C)cc(OC)c1CN1CCC[C@H]1CO [Compound 3, (S,E)-(1-(2,6-Dimethoxy-4-((2-methylbiphenyl-3-yl)vinyl)benzyl)pyrrolidin-2-yl)methanol] | 2700 nM
5 | COC(=O)C1C(O)CCCN1Cc1ccc(/C=C/c2cccc(-c3ccccc3)c2C)c(Cl)c1 (centres unmarked) [Compound 20, (E)-Methyl 1-(3-chloro-4-(2-(2-methylbiphenyl-3-yl)vinyl)benzyl)-3-hydroxypiperidin-2-carboxylate] | > 10000 nM
6 | Cc1c(/C=C/c2cc(CN[C@H](CO)C(=O)O)ccc2Cl)cccc1-c1ccccc1 [Compound 35, (R,E)-2-(4-Chloro-3-(2-(2-methylbiphenyl-3-yl)vinyl)benzylamino)-3-hydroxypropionic Acid] | 250 nM
7 | Cc1cc(CN[C@H](C)C(=O)O)ccc1/C=C/c1cccc(-c2ccccc2)c1C [Compound 13, (R,E)-2-(3-Methyl-4-(2-(2-methylbiphenyl-3-yl)vinyl)benzylamino)propanoic Acid] | 240 nM
8 | Cc1c(/C=C/c2ccc(CN3CCCC(O)C3CO)cc2Cl)cccc1-c1ccccc1 (centres unmarked) [Compound 23, (E)-2-Hydroxymethyl-1-(3-chloro-4-(2-(2-methylbiphenyl-3-yl)vinyl)benzyl) piperidin-3-ol] | 690 nM
9 | COc1cc(/C=C/c2cccc(-c3ccccc3)c2C)cc(OC)c1CN1CCCC(O)C1C(=O)O (centres unmarked) [Compound 30, (E)-1-(2,6-Dimethoxy-4-(2-(2-methylbiphenyl-3-yl)vinyl)benzyl)-3-hydroxy piperidin-2-carboxylic Acid] | 460 nM
10 | COc1nc(/C=C/c2cccc(-c3ccccc3)c2C)ccc1CNCCNC(C)=O [Compound 39, (E)-N-(2-(((2-methoxy-6-(2-(2-methylbiphenyl)vinyl)pyridin-3-yl)methyl)amino)ethyl)acetamide] | 170 nM
11 | Cc1c(/C=C/c2ccc(CN3CCCC(O)C3C(=O)O)cc2F)cccc1-c1ccccc1 (centres unmarked) [Compound 21, (E)-3-Hydroxy-1-(3-fluoro-4-(2-(2-methylbiphenyl-3-yl)vinyl)benzyl)piperid in-2-carboxylic Acid] | 780 nM
12 | Cc1c(/C=C/c2ccc(CNC(CO)CO)cc2Cl)cccc1-c1ccccc1 [Compound 32, (E)-2-(3-Chloro-4-(2-(2-methylbiphenyl-3-yl)vinyl)benzylamino)-1,3-propanediol] | 250 nM
13 | Cc1c(/C=C/c2ccc(CN3CCCC(O)C3C(N)=O)cc2F)cccc1-c1ccccc1 (centres unmarked) [Compound 24, (E)-1-(3-Fluoro-4-(2-(2-methylbiphenyl-3-yl)vinyl)benzyl)-3-hydroxypiperidin-2-carboxamide] | > 10000 nM
14 | Cc1cc(CNC(CO)CO)ccc1/C=C/c1cccc(-c2ccccc2)c1C [Compound 31, (E)-2-(3-Methyl-4-(2-(2-methylbiphenyl-3-yl)vinyl)benzylamino)-1,3-propanediol] | 240 nM
15 | COc1cc(/C=C/c2cccc(-c3ccc4c(c3)OCCO4)c2C)cc(OC)c1CN1CCC[C@H]1CO [Compound 15] | 240 nM
16 | Cc1cc(CN2CCCC(O)C2C(=O)O)ccc1C#Cc1cccc(-c2ccccc2)c1C (centres unmarked) [Compound 28, 1-(3-Methyl-4-((2-methylbiphenyl-3-yl)ethynyl)benzyl)-3-hydroxypiperidin-2-carboxylic Acid] | 2160 nM
17 | Cc1ccc(CN[C@H](CO)C(=O)O)cc1/C=C/c1cccc(-c2ccccc2)c1C [Compound 36, (R,E)-2-(4-Methyl-3-(2-(2-methylbiphenyl-3-yl)vinyl)benzylamino)-3-hydroxypropionic Acid] | 100 nM
18 | Cc1cc(CN2CCC[C@@H](O)[C@@H]2C(N)=O)ccc1/C=C/c1cccc(-c2ccccc2)c1C [Compound 27, (2R,3R,E)-3-Hydroxy-1-(3-methyl-4-(2-(2-methylbiphenyl-3-yl)vinyl)benzyl)piperidin-2-carboxamide] | 920 nM
19 | COc1cc(/C=C/c2cccc(-c3ccccc3)c2C)cc(OC)c1CNC(CO)CO [Compound 5, (E)-2-((2,6-Dimethoxy-4-(2-(2-methylbiphenyl-3-yl)vinyl)benzyl)amino)propane-1,3-diol] | 60 nM

Second part, the molecule after the results:

Row | IC50 | Structure (SMILES)
20 | 920 nM | COc1cc(/C=C/c2cccc(-c3ccccc3)c2C)cc(OC)c1CN1CCCCC1(CO)C(=O)O (centres unmarked) [Compound 47]
21 | 7980 nM | COc1ccc(-c2cccc(/C=C/c3cc(OC)c(CNC(C)(CO)C(=O)O)c(OC)c3)c2C)cc1 (centres unmarked) [Compound 50, (E)-2-(2,6-Dimethoxy-4-(2-(4′-methoxy-2-methylbiphenyl-3-yl)vinyl)benzylamino)-3-hydroxy-2-methylpropionic Acid]
22 | 4500 nM | COc1cc(/C=C/c2cccc(-c3ccc(C(N)=O)cc3)c2C)cc(OC)c1CNc1cccc(O)c1C(=O)O [Compound 55, (E)-2-(2,6-Dimethoxy-4-(2-(4′-carbamoyl-2-methylbiphenyl-3-yl)vinyl)benzylamino)-6-hydroxy-benzoic Acid]
23 | > 10000 nM | COC(=O)c1ccc(-c2cccc(/C=C/c3cc(OC)c(CNC(C)(CO)C(=O)O)c(OC)c3)c2C)cc1 (centres unmarked) [Compound 49, (E)-2-(2,6-Dimethoxy-4-(2-(4′-(methoxycarbonyl)-2-methylbiphenyl-3-yl)vinyl)benzylamino)-3-hydroxy-2-methylpropanoic Acid]
24 | > 10000 nM | COc1cc(/C=C/c2cccc(-c3cnn(C)c3)c2C)cc(OC)c1CN[C@@H](CO)C(=O)O [Compound 61]
25 | 2000 nM | COc1cc(/C=C/c2cncc(-c3ccccc3)c2C)cc(OC)c1CNC(C)(CO)C(=O)O (centres unmarked) [Compound 65, (E)-2-(2,6-Dimethoxy-4-(2-(4-methyl-5-phenylpyridin-3-yl)vinyl)benzylamino)-3-hydroxy-2-methylpropionic Acid]
26 | 2900 nM | COc1cc(/C=C/c2cncc(-c3ccc4c(c3)OCCO4)c2C)cc(OC)c1CNC(C)(CO)C(=O)O (centres unmarked) [Compound 66, (E)-2-(4-(2-(5-(2,3-Dihydrobenzo[b][1,4]dioxin-6-yl)-4-methylpyridin-3-yl)vinyl)-2,6-dimethoxybenzylamino)-3-hydroxy-2-methylpropanoic Acid]
27 | > 10000 nM | COc1cc(N2C=CCN2c2cccc(-c3ccccc3)c2C)cc(OC)c1CNC(CO)C(=O)O (centres unmarked) [Compound 60, 2-(2,6-Dimethoxy-4-(2-(2-methylbiphenyl-3-yl)-1H-pyrazol-1-yl)benzylamino)-3-hydroxypropanoic Acid]
28 | 815 nM | COC(=O)c1cccc(-c2cccc(/C=C/c3cc(OC)c(CNC(C)(CO)C(=O)O)c(OC)c3)c2C)c1 (centres unmarked) [Compound 51, (E)-2-(2,6-Dimethoxy-4-(2-(3′-methoxycarbonyl-2-methylbiphenyl-3-yl)vinyl)benzylamino)-3-hydroxy-2-methylpropionic Acid]
29 | > 10000 nM | COc1ccc(-c2cccc(/C=C/c3cc(OC)c(CN[C@@H](CO)C(=O)O)c(OC)c3)c2C)cc1 [Compound 48, (S,E)-2-(2,6-Dimethoxy-4-(2-(4′-methoxy-2-methylbiphenyl-3-yl)vinyl)benzylamino)-3-hydroxypropionic Acid]
30 | > 10000 nM | COc1cc(/C=C/c2cccc(-c3ccccc3)c2C)cc(OC)c1CNc1ccc(O)c(C(=O)O)c1 [Compound 59, (E)-5-(2,6-Dimethoxy-4-(2-(2-methylbiphenyl-3-yl)vinyl)benzylamino)-2-hydroxybenzoic Acid]
31 | 49 nM | COc1cc(/C=C/c2cccc(-c3ccccc3)c2C)cc(OC)c1CN[C@@](C)(CO)C(=O)O [Compound 45, (S,E)-2-(2,6-Dimethoxy-4-(2-(2-methylbiphenyl-3-yl)vinyl)benzylamino)-3-hydroxy-2-methylpropanoic Acid]
32 | > 10000 nM | COc1cc(/C=C/c2cccc(-c3ccccc3)c2C)cc(OC)c1CNc1ccc(C(=O)O)c(O)c1 [Compound 58, (E)-4-(2,6-Dimethoxy-4-(2-(2-methylbiphenyl-3-yl)vinyl)benzylamino)-2-hydroxybenzoic Acid]
33 | 100 nM | COc1cc(/C=C/c2cccc(-c3ccc4c(c3)OCCO4)c2C)cc(OC)c1CNC(CO)C(=O)O (centres unmarked) [Compound 56, (E)-2-(4-(3-(2,3-Dihydrobenzo[b][1,4]dioxin-6-yl)-2-methylstyryl)-2,6-dimethoxybenzylamino)-3-hydroxypropanoic Acid]
34 | 4200 nM | COc1cc(/C=C/c2cncc(-c3ccc4c(c3)OCCO4)c2C)cc(OC)c1CN[C@@H](CO)C(=O)O [Compound 64, (S,E)-2-(4-(2-(5-(2,3-Dihydrobenzo[b][1,4]dioxin-6-yl)-4-methylpyridin-3-yl)vinyl)-2,6-dimethoxybenzylamino)-3-hydroxypropanoic Acid]
35 | 5090 nM | COc1nc(/C=C/c2cccc(-c3ccccc3)c2C)ccc1CN[C@H](CO)C(=O)O [Compound 41, (R,E)-3-Hydroxy-2-((2-methoxy-6-(2-(2-methylbiphenyl-3-yl)vinyl)pyridin-3-yl)methylamino)propanoic Acid]
